Data set [1] in a line: Post extraction stability of processed samples of LPV in rat plasma. It is filed as physicochemical, Wistar rat. As to conditions: processed rat plasma QC samples kept in auto sampler rack, 24 h. Here is the method:
Processed samples were kept in the sample rack of auto sampler and samples were analyzed in triplicates every 6 h for 24 h period on the day of preparation. The percentage deviation from the mean concentrations observed at zero time was calculated.

Data set [2] is described as follows: Pharmacokinetic study after intravenous bolus administration of LPV in rats. It is filed as in vivo. The settings on record: male Wistar rats, 5 mg kg^−1, n = 6, plasma. The protocol: Formulation was administered through tail vein in male Wistar rats (n = 6), weighing 180 to 220 g, at a dose of 5 mg kg^−1 [35]. Blood samples were drawn from retro-orbital plexus of Wistar rats at 0.083, 0.167, 0.25, 0.5, 1, 2, 3, 4, 6, 8, 12 and 24 h post dose in microfuge tube pretreated with sodium citrate solution (3.8% w/v). A baseline blank plasma sample was drawn from each animal before drug administration. All samples were processed according to the procedure described earlier and analyzed using the validated HPLC method.

The nature of data set [3]: Freeze-thaw stability of LPV in rat plasma. In kind it is in vitro ADME, Wistar rat. As to conditions: rat plasma QC samples, end of three freeze-thaw cycles, frozen at −20 °C. Here is the method: Total of four sets were prepared in triplicates and one set of the prepared concentrations was analyzed on the day of preparation (no freeze-thaw cycle) and the remaining three sets were frozen at −20 °C for 24 h. Frozen samples were thawed by keeping the sealed tubes at room temperature for at least 1 h. One set in triplicate was analyzed and the remaining two sets were kept at −20 °C for freezing and were analyzed after two and three freeze-thaw cycles.

What is called AUC is the area under the concentration-time curve, a measure of exposure. Broadly, the half-life is the time in which the quantity being followed falls by half. Broadly, the MRT is the average time that molecules of a dose stay in the body. Broadly, the clearance is a measure of how efficiently the substance is removed, as volume per time.

Molecules are shown by their SMILES.

Turning to `Cc1cccc(C)c1OCC(=O)N[C@@H](Cc1ccccc1)[C@@H](O)C[C@H](Cc1ccccc1)NC(=O)[C@H](C(C)C)N1CCCNC1=O` [LPV, (2S)-N-[(1S,3S,4S)-1-benzyl-4-{[(2,6-dimethyl-phenoxy)acetyl]amino}-3-hydroxy-5-phenylpentyl]-3-methyl-2-(2-oxotetrahydropyrimidin-1(2H)-yl)butanamide], the “maximum deviation from the zero time concentration (post extraction stability)” value in data set [1] is recorded as “less than 2.0%”. Also, the “area under the first-moment curve (AUMC)” value in data set [2] is given as 4403.07 ± 171.33 h^2 ng mL^−1. For the same compound, the AUC in data set [2] (rat, read-out: area under the curve (AUC)) amounted to 3850 ± 264 ng·h/mL. The C0 in data set [2] (rat, read-out: concentration at time zero (Co)) worked out at 3170 ± 290 ng/mL. In addition, in data set [2] (rat, read-out: elimination half-life (t½) (converted)), the half-life is 49.2 ± 1.8 min. For the same compound, in data set [2] (rat, read-out: mean retention time (MRT)), the mean residence time (MRT) is 69 ± 3 min. Further, the clearance in data set [2] (rat, read-out: total plasma clearance (CLs) (converted)) is 22.4 mL/min/kg. Further, the Vd in data set [2] (rat, read-out: volume of distribution (Vss)) is 1.59 ± 0.146 L/kg. The “deviation from the zero time concentration (freeze-thaw stability)” value in data set [3] is reported as “less than 8.0%”.

For the origin of these results see paper PMC3221505, “Simple, Rapid and Validated LC Determination of Lopinavir in Rat Plasma and its Application in Pharmacokinetic Studies” (Scientia Pharmaceutica, 2011).
